Measured values taken from US20130029367A1, “COMPOSITIONS AND METHODS FOR MONITORING BREAST CANCER TREATMENT” (Board of Trustees of the University of Arkansas, priority 2003, published 2013).

Experiments:
[1] = system: radiation injury to normal breast tissue in BCT patients; test: Phase III pilot study: oral AES-14 vs placebo for radiation injury to the breast in BCT patients; assay type: in vivo, human; settings: at 2 year follow-up
Protocol: This theory was tested in two parts. […] A Phase III pilot study in which 17 patients were randomized to oral AES-14 (30 gm GLN/day, approximately 0.5 gm GLN/kg/day) or placebo from one week prior until one week after radiation therapy (5,000 cGy) was performed. Patients were followed weekly for 7 weeks and every 3 months for 2 years for acute and chronic radiation injury using the RTOG scales, skin biopsy at 0 and 7 weeks, GLN and GSH levels, US, mammogram density, lymphedema, quality of life and performance status.
The RTOG acute radiation morbidity scoring criteria for skin ranges from 0 (no change) to 4 (necrosis). A score of 2 (moist desquamation) was considered failure of treatment. Patients receiving oral AES-14 scored an average of 0.9±0.2, SEM compared to 1.4±0.2 in the placebo group. All patients in the placebo group reached a score of 2 or greater during the first 7 weeks. Two of 8 placebo patients required radiation therapy delay. […] Only 4 of 9 patients in the AES-14 group scored a high of 2, none a 3 (p=0.03 AES-14 vs. placebo, Fisher Exact). At 12 months, 4 of 8 patients in the placebo group complained of pain for which 3 required narcotics, 6 of 8 had significant edema, and 4 of 8 marked increased density and firmness of the radiated breast. […]

[2] = system: human gastrointestinal epithelial cell line (CaCo); test: Cellular uptake of glutamine in CaCo cells (HPLC detection at 340 nm); assay type: in vitro ADME
Protocol: Distilled, deionized water (107 ml) was added to 207 grams of a dry mixture of sucrose, sorbitol, and glutamine with excipients (Aesgen-14) as listed in Table 1.
Both samples were allowed to stand for 1 day at room temperature. The supernatant was decanted from the residue and used for the cellular uptake determination.
On Day 1, cells from a human gastrointestinal epithelial cell line (CaCo) were plated at a density of 0.5×10^6 cells per well in a 6-well tissue culture dish.
At time points 0, 10, 20, 40, and 60 seconds, the test material was aspirated and the cells washed three times (3×) with chilled (4EC) phosphate buffered saline (PBS), followed by the addition of 1.0 ml of perchloric acid. Cells were harvested by scraping, then aspirated by pipet into a 1.7 ml tube.
The harvested cells were sonicated for 10 seconds, and 500:1 of sonicated cells were transferred into a 1.7 ml tube. The perchloric acid was neutralized by the addition of 130:1 of 2M KHCO3, and the resulting mixture was frozen overnight at −80EC.
Upon thawing, the sample was centrifuged for 10 minutes at 14,000 rpm and the supernatants were transferred to new 1.7 ml tubes and frozen at −80EC. The resulting clarified samples were thawed and diluted 1:3 with deionized water. Fifty microliters were withdrawn, added to 10 microliters complete o-phthaldialdehyde (Sigma P-0532), and mixed by agitation. After incubation for two minutes at room temperature, a 20:1 sample was injected on a Hypersil® C18 Elite 5:m HPLC column using 70:30 acetonitrile:water as the mobile phase. Glutamine levels, measured as :g/ml, were detected at 340 nm.

9.29 kDa protein = test: SELDI-MS of serum proteins in breast cancer patients on radiation therapy and oral glutamine (AES-14); assay type: in vivo, human
Source text: Sixteen breast cancer patients treated with radiation therapy were randomized to receive oral supplemental glutamine (AES-14) or a placebo. Ten of the sixteen women received AES-14 (30 g glutamine per day, approximately 0.5 g glutamine/kg/day) from one week prior to initiating radiation therapy (5,000 cGy) until one week after completing radiation therapy. Six patients received placebo. Serum was collected from each patient before beginning glutamine supplementation (Baseline), at two and four weeks after initiating glutamine supplementation, and one week after stopping glutamine supplementation (Post Treatment in FIG. 1).
Serum proteins from each sample were analyzed by SELDI-MS. Briefly, serum proteins were adhered to the solid substrate of a SELDI chip. The proteins were then desorbed by surface enhanced laser desorption in a SELDI-MS apparatus, and analyzed by mass spectrometry.
SELDI-MS was performed using a Ciphergen (Freemont, Calif.) SELDI PDSII instrument. […] The mass:charge ratio (m/z) of each protein was determined according to a variety of externally calibrated peptide and protein standards. […]
The SELDI-MS procedure analyzed proteins over the m/z ratio ranges of 2-20 and 20-100 kDa.

mean cellular glutamine uptake ([2]; normal cells, incubation time 0 seconds): 3.53 :g/ml
mean cellular glutamine uptake ([2]; normal cells, incubation time 10 seconds): 10.30 :g/ml
mean cellular glutamine uptake ([2]; normal cells, incubation time 20 seconds): 2.48 :g/ml
mean cellular glutamine uptake ([2]; normal cells, incubation time 40 seconds): 3.23 :g/ml
mean cellular glutamine uptake ([2]; normal cells, incubation time 60 seconds): 4.85 :g/ml
mean cellular glutamine uptake ([2]; starved cells (L-glutamine deficient medium), incubation time 0 seconds): 1.33 :g/ml
mean cellular glutamine uptake ([2]; starved cells (L-glutamine deficient medium), incubation time 10 seconds): 1.43 :g/ml
mean cellular glutamine uptake ([2]; starved cells (L-glutamine deficient medium), incubation time 20 seconds): 1.49 :g/ml
mean cellular glutamine uptake ([2]; starved cells (L-glutamine deficient medium), incubation time 40 seconds): 2.23 :g/ml
mean cellular glutamine uptake ([2]; starved cells (L-glutamine deficient medium), incubation time 60 seconds): 49.96 :g/ml
Structure (SMILES): NC(=O)CC[C@H](N)C(=O)O [L-glutamine]
patients with local recurrence [1]: none
increase in amount of the 9.29 kDa protein (9.29 kDa protein; first two weeks of glutamine supplementation and radiation therapy): approximately 3 fold
amount of the 9.29 kDa protein after discontinuation (9.29 kDa protein; within one week following discontinuation of glutamine): returned to near the baseline value
